In the NIST ThermoML archive (doi:10.1016/j.fluid.2014.10.029):

Details: for mass density: 101.33 kPa, Liquid, Buoyancy - hydrostatic balance with magnetic suspension - one sinker

CCCCCCCCCn1cc[n+](C)c1.F[P-](F)(F)(F)(F)F [1-nonyl-3-methylimidazolium hexafluorophosphate]
surface tension liquid-gas [mN/m]
Details	Ring tensiometer	Wilhelmy plate
288.14 K	–	33.2
288.18 K	33.64	–
293.07 K	33.26	32.96
298.13 K	32.86	–
298.16 K	–	32.7
303.11 K	–	32.48
303.12 K	32.8	–
308.11 K	–	32.27
308.13 K	32.71	–
313.16 K	–	31.99
313.19 K	32.4	–
318.03 K	–	31.76
318.06 K	32.17	–
323.07 K	–	31.51
323.1 K	31.89	–
328 K	31.7	–
328.04 K	–	31.25
332.93 K	31.43	–
332.95 K	–	30.99
338.37 K	–	30.75
338.49 K	31.11	–
343.34 K	–	30.5
343.59 K	30.88	–
347.87 K	–	30.23
347.9 K	30.57	–
352.81 K	–	29.98
352.87 K	30.32	–
357.85 K	–	29.76
358.12 K	30.14	–
365.11 K	29.71	–
365.22 K	–	29.4

Details	mass density [kg/m3]
293.11 K	1216.29
298.18 K	1212.6
303.15 K	1209.57
308.14 K	1205.42
313.21 K	1201.39
318.08 K	1197.66
323.13 K	1193.94
328.02 K	1190.39
332.95 K	1186.82
338.45 K	1183.02
343.45 K	1179.31
348.02 K	1176.28
352.94 K	1172.76
358.11 K	1168.91
365.13 K	1163.68

CCCn1cc[n+](C)c1.F[P-](F)(F)(F)(F)F [1-methyl-3-propylimidazolium hexafluorophosphate]
surface tension liquid-gas [mN/m]
Details	Ring tensiometer	Wilhelmy plate
293.21 K	–	48.34
293.23 K	47.98	–
298.2 K	–	47.99
298.23 K	47.77	–
303.01 K	–	47.68
303.04 K	48.03	–
308.2 K	–	47.36
308.21 K	47.15	–
313.17 K	–	47.06
313.22 K	47.18	–
318.07 K	–	46.74
318.17 K	46.99	–
323.11 K	–	46.4
323.22 K	46.76	–
328.22 K	46.09	–
328.25 K	–	46.06
333.39 K	45.83	–
333.45 K	–	45.73
338.46 K	45.38	45.41
343.28 K	44.84	–
343.3 K	–	45.14
348.2 K	44.8	–
348.25 K	–	44.78
352.68 K	–	44.5
352.76 K	44.38	–
358.22 K	43.88	–
358.24 K	–	44.23
364.96 K	–	43.78
365.07 K	43.64	–
